Results from patent publication US11919887B2, “Substituted tetrahydrofurans as modulators of sodium channels” (Vertex Pharmaceuticals Incorporated, priority 2019, dated 2024).
pIC50: −log10 of the molar value.

Target: human Nav 1.8 (Homo sapiens, UniProt Q9Y5Y9)
Experiment: E-VIPR assay detecting and measuring Nav inhibition (HEK cells expressing truncated human Nav 1.8)
Assay type: cell-based
Conditions: in the Absence of Human Serum in the E-VIPR Assay; read-out: IC50
Source text: Sodium ion channels are voltage-dependent proteins that can be activated by inducing membrane voltage changes by applying electric fields. The electrical stimulation instrument and methods of use, referred to as E-VIPR, are described in International Publication No. WO 2002/008748 A3 and C.-J. Huang et al. Characterization of voltage-gated sodium channel blockers by electrical stimulation and fluorescence detection of membrane potential, 24 Nature Biotech. 439-46 (2006), both of which are incorporated by reference in their entirety. The instrument comprises a microtiter plate handler, an optical system for exciting the coumarin dye while simultaneously recording the coumarin and oxonol emissions, a waveform generator, a current- or voltage-controlled amplifier, and parallel electrode pairs that are inserted into assay plate wells. Under integrated computer control, this instrument passes user-programmed electrical stimulus protocols to cells within the wells of the microtiter plate.
16-20 hours prior to running the assay on E-VIPR, HEK cells expressing a truncated form of human Nav 1.8 with full channel activity were seeded into microtiter 384-well plates, pre-coated with matrigel, at a density of 25,000 cells per well. 2.5-5% KIR2.1 Bacmam virus was added to the final cell suspension before seeding into cell plates. HEK cells were grown in Dulbecco's Modified Eagle's Medium (DMEM) supplemented with 10% FBS (Fetal Bovine Serum, qualified; Sigma #F4135), 1% NEAA (Non-Essential Amino Acids, Gibco #11140), 1% HEPES (Gibco #15630), 1% Pen-Strep (Penicillin-Streptomycin; Gibco #15140) and 5 μg/ml Blasticidin (Gibco #R210-01). Cells were expanded in vented cap cell culture flasks, with 90-95% humidity and 5% CO2.
Human Serum (HS, Millipore #S1P1-01KL, or Sigma SLBR5469V and SLBR5470V as a 50%/50% mixture, for 25% assay final concentration)
Bath1 Buffer: • Sodium Chloride 160 mM (9.35 g/L), Potassium Chloride, 4.5 mM (0.335 g/L), Glucose 10 mM (1.8 g/L), Magnesium Chloride (Anhydrous) 1 mM (0.095 g/L), Calcium Chloride 2 mM (0.222 g/L), HEPES 10 mM (2.38 g/L) in water.
Na/TMA Cl Bath1 Buffer: • Sodium Chloride 96 mM (5.61 g/L), Potassium Chloride 4.5 mM (0.335 g/L), Tetramethylammonium (TMA)-Cl 64 mM (7.01 g/L), Glucose 10 mM (1.8 g/L), Magnesium Chloride (Anhydrous) 1 mM (0.095 g/L), Calcium Chloride 2 mM (0.222 g/L) HEPES 10 mM (2.38 g/L) in water.
Hexyl Dye Solution (2× concentration): • Bath1 Buffer containing 0.5% β-cyclodextrin (made fresh prior to each use, Sigma #C4767), 8 μM CC2-DMPE and 2 μM DiSBAC6(3). The solution was made by adding 10% Pluronic F127 stock equal to combined volumes of CC2-DMPE and DiSBAC6(3). The order of preparation was first mix Pluronic and CC2-DMPE, then add DiSBAC6(3), then while vortexing add Bath1/β-Cyclodextrin.
Compound Loading Buffer (2×concentration): Na/TMA Cl Bath1 Buffer containing HS (omitted in experiments run in the absence of human serum (HS)) 50%, VABSC-1 1 mM, BSA 0.2 mg/ml (in Bath-1), KCl 9 mM, DMSO 0.75%.
Assay Protocol (7 Key Steps): • 1) To reach the final concentration in each well, 400 nL of each compound was pre-spotted (in neat DMSO) into polypropylene compound plates at 250×desired final concentration from an intermediate stock concentration of 0.075 mM, in an 11 point dose response, 3-fold dilution, resulting in a top dose of 300 nM final concentration in the cell plate. Vehicle control (neat DMSO), and positive control (an established Nav1.8 inhibitor, 25 μM final in assay in DMSO) were added manually to the outermost columns of each plate respectively. The compound plate was backfilled with 45 μL per well of Compound Loading Buffer resulting in a 250 fold dilution of compound following a 1:1 transfer of compound into the cell plate (see Step 6). Final DMSO concentration for all wells in the assay was 0.625% (0.75% DMSO was supplemented to the Compound Loading Buffer for a final DMSO concentration of 0.625%). […]

Chain of human Nav 1.8 (Q9Y5Y9 whole entry, looked up, the tested form may be a part): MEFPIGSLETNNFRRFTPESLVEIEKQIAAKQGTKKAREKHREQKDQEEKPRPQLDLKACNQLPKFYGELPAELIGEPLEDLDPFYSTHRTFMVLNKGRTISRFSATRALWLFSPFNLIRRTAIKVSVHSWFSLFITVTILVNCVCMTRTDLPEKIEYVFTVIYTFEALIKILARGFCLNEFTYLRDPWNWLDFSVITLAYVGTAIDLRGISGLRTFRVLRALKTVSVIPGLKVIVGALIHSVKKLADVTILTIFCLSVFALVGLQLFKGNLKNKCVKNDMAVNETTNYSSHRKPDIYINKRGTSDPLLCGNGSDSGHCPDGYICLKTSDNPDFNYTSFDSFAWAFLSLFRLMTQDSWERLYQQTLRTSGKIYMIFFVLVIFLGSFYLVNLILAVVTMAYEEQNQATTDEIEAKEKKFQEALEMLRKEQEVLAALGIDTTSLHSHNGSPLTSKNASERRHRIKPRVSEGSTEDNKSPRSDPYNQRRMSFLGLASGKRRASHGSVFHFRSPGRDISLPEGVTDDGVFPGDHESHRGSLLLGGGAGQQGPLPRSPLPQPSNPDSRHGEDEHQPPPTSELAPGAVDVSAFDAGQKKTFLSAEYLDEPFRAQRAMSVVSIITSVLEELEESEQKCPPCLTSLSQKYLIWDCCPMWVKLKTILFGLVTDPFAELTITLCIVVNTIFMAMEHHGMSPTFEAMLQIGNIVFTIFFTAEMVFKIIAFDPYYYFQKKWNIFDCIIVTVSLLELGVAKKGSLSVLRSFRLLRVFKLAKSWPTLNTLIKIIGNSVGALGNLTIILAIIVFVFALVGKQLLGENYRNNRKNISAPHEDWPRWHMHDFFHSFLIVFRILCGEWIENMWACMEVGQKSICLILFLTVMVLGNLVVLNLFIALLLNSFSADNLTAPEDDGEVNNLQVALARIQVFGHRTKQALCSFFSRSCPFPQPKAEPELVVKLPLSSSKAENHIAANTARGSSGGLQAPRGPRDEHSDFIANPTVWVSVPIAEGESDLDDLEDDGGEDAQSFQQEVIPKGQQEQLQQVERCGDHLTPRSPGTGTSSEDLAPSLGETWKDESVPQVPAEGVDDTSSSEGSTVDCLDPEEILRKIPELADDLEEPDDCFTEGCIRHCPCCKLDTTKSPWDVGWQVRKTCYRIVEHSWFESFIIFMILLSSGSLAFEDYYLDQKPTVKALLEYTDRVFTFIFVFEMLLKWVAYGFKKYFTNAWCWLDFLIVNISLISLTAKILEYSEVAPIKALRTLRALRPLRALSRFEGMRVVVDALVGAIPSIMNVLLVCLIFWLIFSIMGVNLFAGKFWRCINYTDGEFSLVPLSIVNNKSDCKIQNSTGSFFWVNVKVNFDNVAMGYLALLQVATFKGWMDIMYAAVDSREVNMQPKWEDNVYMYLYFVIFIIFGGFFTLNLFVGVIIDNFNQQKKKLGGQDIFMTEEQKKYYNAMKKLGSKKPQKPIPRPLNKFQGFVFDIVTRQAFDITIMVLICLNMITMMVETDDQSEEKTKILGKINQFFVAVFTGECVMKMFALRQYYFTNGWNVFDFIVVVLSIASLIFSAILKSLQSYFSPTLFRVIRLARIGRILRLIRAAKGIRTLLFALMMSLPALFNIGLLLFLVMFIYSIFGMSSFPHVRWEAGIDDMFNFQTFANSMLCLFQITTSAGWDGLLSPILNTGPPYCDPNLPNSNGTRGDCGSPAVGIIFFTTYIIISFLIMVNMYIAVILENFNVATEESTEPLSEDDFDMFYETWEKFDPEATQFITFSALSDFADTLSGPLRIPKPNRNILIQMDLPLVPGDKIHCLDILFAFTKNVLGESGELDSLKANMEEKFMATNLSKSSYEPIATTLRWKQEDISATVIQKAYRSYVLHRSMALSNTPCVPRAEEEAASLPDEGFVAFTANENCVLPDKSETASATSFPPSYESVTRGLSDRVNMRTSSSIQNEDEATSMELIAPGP

Compound	pIC50
COc1cc(C(F)(F)F)ncc1[C@H]1[C@H](C(=O)Nc2ccnc(C(N)=O)c2)O[C@@](C)(C(F)(F)F)[C@H]1C (racemic) [compound 139]	< 6.00

Same assay, conditions: in the Presence of Human Serum in the E-VIPR Assay

Compound	pIC50
COc1c([C@@H]2[C@@H](C(=O)Nc3ccnc(C(N)=O)c3)O[C@@](C)(C(F)(F)F)[C@@H]2C)ccc(F)c1F (racemic) [Compound 33, rac-(2S,3R,4R,5R)-4-[[3-(3,4-difluoro-2-methoxy-phenyl)-4,5-dimethyl-5-(trifluoromethyl)tetrahydrofuran-2-carbonyl]amino]pyridine-2-carboxamide]	6.00 to 7.00
COc1c([C@@H]2[C@@H](C(=O)Nc3ccnc(C(N)=O)c3)O[C@@](C)(C(F)(F)F)[C@H]2C)ccc(F)c1F (racemic) [Compound 34, rac-(2S,3R,4S,5R)-4-[[3-(3,4-difluoro-2-methoxy-phenyl)-4,5-dimethyl-5-(trifluoromethyl)tetrahydrofuran-2-carbonyl]amino]pyridine-2-carboxamide]	< 6.00
COc1c([C@@H]2[C@@H](C)[C@](C)(C(F)(F)F)O[C@H]2C(=O)Nc2ccnc(C(N)=O)c2)ccc(F)c1F (racemic) [Compound 35, rac-(2R,3S,4R,5R)-4-[[3-(3,4-difluoro-2-methoxy-phenyl)-4,5-dimethyl-5-(trifluoromethyl)tetrahydrofuran-2-carbonyl]amino]pyridine-2-carboxamide]	6.00 to 7.00

Same assay, conditions: in the Presence of Human Serum in the E-VIPR Assay; read-out: IC50

Compound	pIC50
COc1cccc(F)c1[C@@H]1C[C@](C)(C(F)(F)F)O[C@H]1C(=O)Nc1ccnc(C(N)=O)c1 (racemic) [Compound 79, rac-(2R,3S,5R)-4-[[3-(2-fluoro-6-methoxy-phenyl)-5-methyl-5-(trifluoromethyl)tetrahydrofuran-2-carbonyl]amino]pyridine-2-carboxamide]	< 6.00
COc1c([C@H]2[C@@H](C(=O)Nc3ccnc(C(N)=O)c3)OC(C)(C)[C@@H]2C)ccc(F)c1F (racemic) [Compound 100, rac-(2S,3S,4R)-4-[[3-(3,4-difluoro-2-methoxy-phenyl)-4,5,5-trimethyl-tetrahydrofuran-2-carbonyl]amino]pyridine-2-carboxamide]	< 6.00
C[C@H]1[C@@H](c2ccc(F)c(F)c2OC(F)F)[C@H](C(=O)Nc2ccnc(C(N)=O)c2)O[C@@]1(C)C(F)(F)F (racemic) [Compound 115, rac-(2R,3S,4S,5R)-4-[[3-[2-(difluoromethoxy)-3,4-difluoro-phenyl]-4,5-dimethyl-5-(trifluoromethyl)tetrahydrofuran-2-carbonyl]amino]pyridine-2-carboxamide]	> 8.00
CC[C@H]1[C@@H](c2ccc(F)c(F)c2OC)[C@H](C(=O)Nc2ccnc(C(N)=O)c2)O[C@@]1(C)C(F)(F)F (racemic) [Compound 116, rac-(2R,3S,4S,5R)-4-[[3-(3,4-difluoro-2-methoxy-phenyl)-4-ethyl-5-methyl-5-(trifluoromethyl)tetrahydrofuran-2-carbonyl]amino]pyridine-2-carboxamide]	> 8.00
C[C@@H]1[C@H](c2ccc(F)cc2OC(F)F)[C@@H](C(=O)Nc2ccnc(C(N)=O)c2)O[C@@]1(C)C(F)(F)F (racemic) [compound 28]	7.00 to 8.00
COc1c([C@H]2C[C@@](C)(C(F)(F)F)O[C@@H]2C(=O)Nc2ccnc(C(N)=O)c2)ccc(F)c1Cl (relative stereo) [Compound 20, rel-(2S,3R,5S)-4-[[3-(3-chloro-4-fluoro-2-methoxy-phenyl)-5-methyl-5-(trifluoromethyl)tetrahydrofuran-2-carbonyl]amino]pyridine-2-carboxamide]	< 6.00
COc1c([C@H]2C[C@@](C)(C(F)(F)F)O[C@@H]2C(=O)Nc2ccnc(C(N)=O)c2)ccc(F)c1Cl (relative stereo) [Compound 22, rel-(2R,3S,5R)-4-[[3-(3-chloro-4-fluoro-2-methoxy-phenyl)-5-methyl-5-(trifluoromethyl)tetrahydrofuran-2-carbonyl]amino]pyridine-2-carboxamide]	7.00 to 8.00
COc1c([C@@H]2[C@H](C)[C@H](C(F)(F)F)O[C@H]2C(=O)Nc2ccnc(C(N)=O)c2)ccc(F)c1F (relative stereo) [Compound 24, rel-(2R,3S,4S,5R)-4-[[3-(3,4-difluoro-2-methoxy-phenyl)-4-methyl-5-(trifluoromethyl)tetrahydrofuran-2-carbonyl]amino]pyridine-2-carboxamide]	< 6.00
COc1c([C@@H]2[C@H](C)[C@H](C(F)(F)F)O[C@H]2C(=O)Nc2ccnc(C(N)=O)c2)ccc(F)c1F (relative stereo) [Compound 25, rel-(2S,3R,4R,5S)-4-[[3-(3,4-difluoro-2-methoxy-phenyl)-4-methyl-5-(trifluoromethyl)tetrahydrofuran-2-carbonyl]amino]pyridine-2-carboxamide]	> 8.00
COc1c([C@@H]2C[C@](C)(C(F)(F)F)O[C@H]2C(=O)Nc2cc[n+]([O-])c(C(N)=O)c2)ccc(F)c1F (relative stereo) [Compound 54, rel-(2R,3S,5R)-4-[[3-(3,4-difluoro-2-methoxy-phenyl)-5-methyl-5-(trifluoromethyl)tetrahydrofuran-2-carbonyl]amino]-1-oxido-pyridin-1-ium-2-carboxamide]	6.00 to 7.00
COc1cc(F)ccc1[C@@H]1C[C@](C)(C(F)(F)F)O[C@@H]1C(=O)Nc1ccnc(C(N)=O)c1 (relative stereo) [Compound 70, rel-(2S,3S,5R)-4-[[3-(4-fluoro-2-methoxy-phenyl)-5-methyl-5-(trifluoromethyl)tetrahydrofuran-2-carbonyl]amino]pyridine-2-carboxamide]	< 6.00
COc1cc(F)ccc1[C@H]1[C@H](C(=O)Nc2ccnc(C(N)=O)c2)O[C@@](C)(C(F)(F)F)[C@H]1C (single isomer, unassigned) [Compound 3a]	< 6.00
COc1cc(F)ccc1[C@@H]1[C@@H](C(=O)Nc2ccnc(C(N)=O)c2)O[C@](C)(C(F)(F)F)[C@@H]1C (single isomer, unassigned) [Compound 3b]	> 8.00
C[C@H]1[C@@H](c2ccc(F)c(F)c2OC(F)F)[C@H](C(=O)Nc2ccc(F)c(C(N)=O)c2)O[C@@]1(C)C(F)(F)F (single isomer, unassigned) [Compound 14]	< 6.00
C[C@H]1[C@@H](c2ccc(F)c(F)c2OC(F)F)[C@H](C(=O)Nc2ccc(F)c(C(N)=O)c2)O[C@@]1(C)C(F)(F)F (single isomer, unassigned) [Compound 15]	> 8.00
CNC(=O)c1cc(NC(=O)[C@H]2O[C@](C)(C(F)(F)F)[C@H](C)[C@@H]2c2ccc(F)cc2OC(F)F)ccn1 (single isomer, unassigned) [Compound 29]	< 6.00
CNC(=O)c1cc(NC(=O)[C@@H]2O[C@@](C)(C(F)(F)F)[C@@H](C)[C@H]2c2ccc(F)cc2OC(F)F)ccn1 (single isomer, unassigned) [Compound 30]	6.00 to 7.00
C[C@@H]1[C@H](c2ccc(F)cc2OC(F)F)[C@@H](C(=O)Nc2ccc(F)c(C(N)=O)c2)O[C@]1(C)C(F)(F)F (single isomer, unassigned) [Compound 31]	< 6.00
C[C@H]1[C@@H](c2ccc(F)cc2OC(F)F)[C@H](C(=O)Nc2ccc(F)c(C(N)=O)c2)O[C@@]1(C)C(F)(F)F (single isomer, unassigned) [Compound 32]	> 8.00
